In patent US11332494B2, “Nanoemulsions and methods for cancer therapy” (Fernando Thome Kreutz, priority 2016, dated 2022) one finds IC50 data, which are given here for 7 compounds.

Common to all, as to experiment: Cell viability assay (Hoechst 33342/PI, ImageXpress)
Common to all, as to type: cell-based

Assay [1] concerns B16-F10 cell line. The conditions noted are these: Mus musculus. The protocol: (§1) The purity of each oxysterol was determined to be 98% by GS/MS. For all experiments, a stock solution was prepared at a concentration of 1000 μM in absolute ethanol. The concentrations used in the experiments were in the range of those described to induce cell death on several cell lines. For the experiments, cells were plated at a density of 1.5×10^3 cells/[…] in triplicate in 96-well Black Flat Bottom Polystyrene Microplates (Corning, Mass.) and incubated in CO2 atmosphere. […] At the end of this experimental period, several parameters were determined in each of the three samples, as described hereafter.
(§2) After 24 h cells were incubated with Hoechst 33342 (0.1 μg/mL) and 0.5 μl propidium iodide (PI) for 15 min. ImageXpress Micro high content screening system (Molecular Devices, Sunnyvale, Calif.) was used to determine the number of live and death cells. Nine sites per well and three wells per treatment were acquired. Cell Scoring MetaXpress software was used to analyze the number of cells and the viability. For IC50 calculations, survival data were evaluated by variable slope curve-fitting with GraphPad Prism.

For assay [2], the system named is MDA-MB-321 cell line. The protocol: as §1, §2
The subject of assay [3] is LL 24. The conditions noted are these: LL24, Table 4, time and unit inferred. The method, then:
(§3) The purity of each oxysterol was determined to be 98% by GS/MS. For all experiments, a stock solution was prepared at a concentration of 1000 μM in absolute ethanol. The concentrations used in the experiments were in the range of those described to induce cell death on several cell lines. For the experiments, cells were plated at a density of 1.5×10^3 cells/[…] in triplicate in 96-well Black Flat Bottom Polystyrene Microplates (Corning, Mass.) and incubated in CO2 atmosphere. Several concentrations of each oxysterol (0 to 100 μM, 200 μL final volume) were added to the media, followed by incubation for 24 h. At the end of this experimental period, several parameters were determined in each of the three samples, as described hereafter. After 24 h cells were incubated with Hoechst 33342 (0.1 μg/mL) and 0.5 μl propidium iodide (PI) for 15 min. ImageXpress Micro high content screening system (Molecular Devices, Sunnyvale, Calif.) was used to determine the number of live and death cells. Nine sites per well and three wells per treatment were acquired. Cell Scoring MetaXpress software was used to analyze the number of cells and the viability. For IC50 calculations, survival data were evaluated by variable slope curve-fitting with GraphPad Prism.

The test system of assay [4] is HUV-EC. Particulars: Homo sapiens, HUVEC, Table 4, time and unit inferred. The protocol: as §3
For assay [5], the system named is U87-MG. The conditions noted are these: U-87 MG, human glioblastoma astrocytoma, Table 2. The protocol:
(§4) The purity of each oxysterol was determined to be 98% by GS/MS. For all experiments, a stock solution was prepared at a concentration of 1000 μM in absolute ethanol. The concentrations used in the experiments were in the range of those described to induce cell death on several cell lines. For the experiments, cells were plated at a density of 1.5×10^3 cells/[…] in triplicate in 96-well Black Flat Bottom Polystyrene Microplates (Corning, Mass.) and incubated in CO2 atmosphere. Several concentrations of each oxysterol (0 to 100 μM, 200 μL final volume) were added to the media, followed by incubation for 24 h. At the end of this experimental period, several parameters were determined in each of the three samples, as described hereafter.
as §2

The test system of assay [6] is MRC-5. Particulars: MRC5; MRC-5, human lung normal; Table 2. The method, then: as §4, §2
Assay [7] has as its system Jurkat. Particulars: human acute T cell leukemia, Table 2. The method, then: as §4, §2
Assay [8] concerns HepG-2. The conditions noted are these: HepG2; HepG-2, human hepatocellular carcinoma; Table 2. The method, then:
as §4, §2

The test system of assay [9] is A172. Particulars: A 172; A172, human brain glioblastoma; Table 2. The method, then: as §4, §2
Assay [10] has as its system HeLa. The conditions noted are these: human cervix adenocarcinoma, Table 2. The protocol: as §4, §2
For assay [11], the system named is Molt-4. The conditions noted are these: Molt-4, human acute lymphoblastic leukemia; Table 2. The method, then:
as §4, §2

For assay [12], the system named is PC-3. Particulars: PC-3, human prostate grade IV adenocarcinoma; Table 2. The protocol:
as §4, §2

Assay [13] deals with T98G. Particulars: human brain glioblastoma, Table 2. The method, then:
as §4, §2

Assay [14] concerns Raji. The conditions noted are these: human Burkitt's lymphoblast, Table 2. The protocol:
as §4, §2

[15] abbreviates: B16-F10, 24 h, Table 3, read-out: B16-F10 cell line IC50 (uM) 24 h.
Where [16] appears, read: B16-F10, 48 h, Table 3, read-out: B16-F10 cell line IC50 (uM) 48 h.
Setting [17] is: B16-F10, 72 h, Table 3, read-out: B16-F10 cell line IC50 (uM) 72 h.
Setting [18] is: B16 F10, Table 4, time and unit inferred, read-out: IC50 B16 F10.
Where [19] appears, read: MDA-MB-321, 24 h, Table 3, read-out: MDA-MB-321 cell line IC50 (uM) 24 h.
[20] abbreviates: MDA-MB-321, 48 h, Table 3, read-out: MDA-MB-321 cell line IC50 (uM) 48 h.
[21] abbreviates: MDA-MB-321, 72 h, Table 3, read-out: MDA-MB-321 cell line IC50 (uM) 72 h.
Setting [22] is: MDA-MB-321, Table 4, time and unit inferred, read-out: IC50 MDA-MB-321.

Where two headings read alike, the source gives them in different places.

As usually defined, the IC50 is the concentration at which inhibition is half-maximal. With `CC(C)CCCC(C)C1CCC2C3CC(O)C4CC(O)CC[C@]4(C)C3CC[C@]12C` (stereo in doubt) [Ox-4, (3α,5β,6α)-cholestane-3,6-diol], the IC50 in [1] (setting [15]) worked out at 58.3 µM; in assay [1] (setting [16]) it was 52.9 µM; in assay [1] (setting [17]), 82.6 µM; in assay [1] (setting [18]) it was 42.4 µM; in [2] (setting [19]), 66.6 µM; in [2] (setting [20]), 39.7 µM. Moreover, the results for the IC50 in assay [2] (setting [21]), in assay [2] (setting [22]) and in [3] were 35.3 µM, 59 µM and 28.3 µM, respectively.
As to `CC(C)CCCC(C)C1CCC2C3CC(O)C4(O)CC(O)CC[C@]4(C)C3CC[C@]12C` (stereo in doubt) [Ox-2, Cholestane-3α-5β-6α-triol], the IC50 in [1] (setting [15]) is 18.1 µM; in assay [1] (setting [16]), 21.4 µM; in assay [1] (setting [17]) it was 15.4 µM; in assay [1] (setting [18]), 41.3 µM; in assay [2] (setting [19]), 7.9 µM; in [2] (setting [20]) it was 21.1 µM. Further, the IC50 in assay [2] (setting [21]) worked out at 25.2 µM; in [2] (setting [22]), 37.5 µM; in [3], 38.4 µM; in [4], 73.6 µM; in assay [5] it was 29.8 µM; in [6] it was 47.5 µM. For the same compound, the IC50 in assay [7] was determined as 46.6 µM; in assay [8], 19 µM; in assay [9], 23.6 µM; in assay [10], 19.9 µM; in assay [11] it was 12.3 µM; in assay [12], 21 µM. In addition, the IC50 in assay [13] stood at 27.5 µM; in assay [14], 39 µM.
As to `CC(=O)O[C@H]1CC[C@@]2(C)C(=CC(=O)[C@H]3[C@@H]4CC[C@H]([C@H](C)CCCC(C)C)[C@@]4(C)CC[C@@H]32)C1` [Ox-6, 7-oxocholest-5-en-3-β-yl acetate], the IC50 was 8560 µM in assay [2] (setting [20]) and 829 µM in [2] (setting [21]).
On to `CC(C)CCC[C@H](C)C1CCC2C3C(=O)C=C4C=CCC[C@]4(C)C3CC[C@@]21C` (stereo partly shown) [Ox-3, 3,5-cholestan-7-one], for which the IC50 amounted to 377 µM in assay [1] (setting [16]), 52.9 µM in assay [1] (setting [17]) and 118 µM in [1] (setting [18]).
For the compound `CC(C)CCC[C@@H](C)[C@H]1CC[C@H]2[C@@H]3C(=O)C=C4C[C@@H](O)CC[C@]4(C)[C@H]3CC[C@]12C` [Ox-1, 7-Ketocholesterol], the IC50 turned out to be 19.9 µM in [1] (setting [15]); 21.7 µM in assay [1] (setting [16]); 29.6 µM in [1] (setting [17]); 35.6 µM in [1] (setting [18]); 54.4 µM in [2] (setting [19]); 50.4 µM in [2] (setting [20]). In addition, the IC50 in [2] (setting [21]) stood at 48.1 µM; in assay [2] (setting [22]), 37.6 µM; in assay [3], 49.5 µM; in assay [4], 39.4 µM; in assay [5] it was 55.6 µM; in [6] it was 78.6 µM. The IC50 in [7] amounted to 55.8 µM; in [8] it was 42.5 µM; in [9], 15.6 µM; in assay [10] it was 33.2 µM; in assay [11] it was 38 µM; in assay [12], 19.2 µM. This compound displayed a 50% inhibitory concentration (IC50) in assay [14] of 63.3 µM.
Take `CC(=O)O[C@H]1CC[C@@]2(C)C(=CC[C@H]3[C@@H]4CC[C@H]([C@H](C)CCCC(C)C)[C@@]4(C)CC[C@@H]32)C1` [Ox-5, Cholesteryl acetate]: the IC50 in [2] (setting [21]) was found to be 89.8 µM.
As for `CC(C)CCC[C@@H](C)[C@H]1CC[C@H]2[C@@H]3C(=O)[C@@H]4O[C@@]45C[C@@H](O)CC[C@]5(C)[C@H]3CC[C@]12C` [Ox-8, (3α,5β,6α)-3-OH-5,6-epoxycholestan-7-one], the half-inhibitory concentration (IC50) is 37 µM in [1] (setting [18]), 40 µM in [2] (setting [22]), 46.5 µM in assay [3] and 35.2 µM in assay [4].
